Legend:
PXR [1] = conditions: only at very high concentrations, 20 or 40 μM; cited from earlier work
CAR = conditions: only at very high concentrations, 20 or 40 μM; cited from earlier work
PXR [2] = conditions: cited from earlier work
GST-hCAR-LBD = target: T1, GST-hCAR-LBD (Homo sapiens, UniProt Q14994); test: CAR-mediated fluorescent PGC1α coactivator recruitment/repression assay; conditions: ratio of IC50 values; for fold more potent than lead compound CINPA1 (11) / fold increase of IC50 (less potent) relative to lead chemical 11: comparator 11 (IC50 687 nM)
T1 sequence (Q14994 109-348 isoform Q14994-2 limits assumed): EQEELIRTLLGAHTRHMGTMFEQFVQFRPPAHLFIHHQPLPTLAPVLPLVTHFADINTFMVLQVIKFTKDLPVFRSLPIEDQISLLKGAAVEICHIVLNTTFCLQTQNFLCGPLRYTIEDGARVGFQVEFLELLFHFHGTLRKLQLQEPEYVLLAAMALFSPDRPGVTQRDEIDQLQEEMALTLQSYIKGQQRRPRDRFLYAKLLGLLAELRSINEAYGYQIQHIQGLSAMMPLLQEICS

hCAR = conditions: cultured human hepatocytes; cited from earlier work

Structure (SMILES)	fold more potent than lead compound CINPA1 (11) (GST-hCAR-LBD)	fold increase of IC50 (less potent) relative to lead chemical 11 (GST-hCAR-LBD)	further results
C=CCN=C=S [AITC, allyl isothiocyanate]	–	–	inhibitory effect against PXR (PXR [1]): inhibitory effects against both CAR and PXR; inhibitory effect against CAR (CAR): inhibitory effects against both CAR and PXR
CCOC(=O)Nc1ccc2c(c1)N(C(=O)CN(CC)CC)c1ccccc1CC2 [Compound 11, ethyl (5-(diethylglycyl)-10,11-dihydro-5H-dibenzo[b,f]azepin-3-yl)carbamate]	–	–	PXR activation (PXR [2]): does not activate PXR
CCOC(=O)Nc1ccc2c(c1)N(C(=O)CN1CCOCC1)c1ccccc1CC2 [Compound 12]	about 3 fold	–	–
CCOC(=O)Nc1ccc2c(c1)N(C(=O)CN1CCN(C)CC1)c1ccccc1CC2 [Compound 13]	–	56 fold	–
CCOC(=O)Nc1ccc2c(c1)N(C(=O)CNC(C)(C)C)c1ccccc1CC2 [Compound 16]	–	5 fold	–
CC(C)OC(=O)Nc1ccc2c(c1)N(C(=O)CCN(C)C)c1ccccc1CC2 [Compound 20]	–	–	fold increase in potency compared to chemical 18 (GST-hCAR-LBD; comparator 18): about 3 fold
CCCN(CCC)CC(=O)N1c2ccccc2CCc2ccc(NC(=O)OCC)cc21 [Compound 22, Ethyl (5-(dipropylglycyl)-10,11-dihydro-5H-dibenzo[b,f]azepin-3-yl)carbamate]	3 fold	–	–
CCOC(=O)Nc1ccc2c(c1)N(C(=O)CN(C(C)C)C(C)C)c1ccccc1CC2 [Compound 23, Ethyl (5-(diisopropylglycyl)-10,11-dihydro-5H-dibenzo[b,f]azepin-3-yl)carbamate]	–	more than 4 fold	–
CCOC(=O)Nc1ccc2c(c1)N(C(=O)CN1CCCC1)c1ccccc1CC2 [Compound 24, Ethyl (5-(2-(pyrrolidin-1-yl)acetyl)-10,11-dihydro-5H-dibenzo[b,f]azepin-3-yl)carbamate]	–	more than 2 fold	–
CCOC(=O)Nc1ccc2c(c1)N(C(=O)CN1C(C)(C)CCCC1(C)C)c1ccccc1CC2 [Compound 26, Ethyl (5-(2-(2,2,6,6-tetramethylpiperidin-1-yl)acetyl)-10,11-dihydro-5H-dibenzo[b,f]azepin-3-yl)carbamate]	–	–	fold IC50 relative to chemical 25 (GST-hCAR-LBD; comparator 25): over 6 fold
CCOC(=O)Nc1ccc2c(c1)N(C(=O)CN1C(=O)C=CC1=O)c1ccccc1CC2 [Compound 28, Ethyl (5-(2-(2,5-dioxo-2,5-dihydro-1H-pyrrol-1-yl)acetyl)-10,11-dihydro-5H-dibenzo[b,f]azepin-3-yl)carbamate]	–	–	fold IC50 relative to chemical 24 (GST-hCAR-LBD; comparator 24, less active): 25 fold
CCOC(=O)Nc1ccc2c(c1)N(C(=O)Cn1cccc1)c1ccccc1CC2 [Compound 29, Ethyl (5-(2-(1H-pyrrol-1-yl)acetyl)-10,11-dihydro-5H-dibenzo[b,f]azepin-3-yl)carbamate]	19 fold	–	fold more potent than chemical 24 (GST-hCAR-LBD; comparator 24): 43 fold
CCOC(=O)Nc1ccc2c(c1)N(C(=O)Cn1ccnc1)c1ccccc1CC2 [Compound 30, Ethyl (5-(2-(1H-imidazol-1-yl)acetyl)-10,11-dihydro-5H-dibenzo[b,f]azepin-3-yl)carbamate]	–	–	fold IC50 relative to chemical 29 (GST-hCAR-LBD; comparator 29, loss of activity): 186 fold
CCOC(=O)Nc1ccc2c(c1)N(C(=O)CNC(C)(C)CC)c1ccccc1CC2 [Compound 32, Ethyl (5-(tert-pentylglycyl)-10,11-dihydro-5H-dibenzo[b,f]azepin-3-yl)carbamate]	–	3 fold	–
CCOC(=O)Nc1ccc2c(c1)N(C(=O)CCN(CC)CC)c1ccccc1CC2 [Compound 33, Ethyl (5-(3-(diethylamino)propanoyl)-10,11-dihydro-5H-dibenzo[b,f]azepin-3-yl)carbamate]	–	3.5 fold	–
CCOC(=O)Nc1ccc2c(c1)N(C(=O)COC(C)(C)C)c1ccccc1CC2 [Compound 35, Ethyl (5-(2-(tert-butoxy)acetyl)-10,11-dihydro-5H-dibenzo[b,f]azepin-3-yl)carbamate]	9.7 fold	–	–
CCN(CC)CC(=O)N1c2ccccc2CCc2ccc(Nc3nnc(C)o3)cc21 [Compound 44, 2-(Diethylamino)-1-(3-((5-methyl-1,3,4-oxadiazol-2-yl)amino)-10,11-dihydro-5H-dibenzo[b,f]azepin-5-yl)ethan-1-one]	–	about 3.4 fold	–
CC(C)OC(=O)Nc1ccc2c(c1)N(C(=O)Cn1cccc1)c1ccccc1CC2 [Compound 56, Isopropyl (5-(2-(1H-pyrrol-1-yl)acetyl)-10,11-dihydro-5H-dibenzo[b,f]azepin-3-yl)carbamate]	32.8 fold	–	–
O=C(Nc1ccc2c(c1)N(C(=O)Cn1cccc1)c1ccccc1CC2)OC1CCCCC1 [Compound 72, Cyclohexyl (5-(2-(1H-pyrrol-1-yl)acetyl)-10,11-dihydro-5H-dibenzo[b,f]azepin-3-yl)carbamate]	about 59 fold	–	–
Cc1cccc(CN2CCN(C(c3ccccc3)c3ccc(Cl)cc3)CC2)c1 (stereo not shown) [Meclizine]	–	–	hCAR inverse agonist or antagonist effect (hCAR): failed to act as an effective hCAR inverse agonist or antagonist
